Data published in US5028601A, “Cephalosporin compounds and antibacterial agents” (Meiji Saika Kaisha, Ltd., priority 1987, dated 1991).
Like-named read-outs stand apart in the source and are kept apart here.

Assays:
Assay type in all cases: cell-based
Parameters in all cases: unit not given here
[1] = tested on: Pseudomonas aeruginosa IAM-1007; test: Minimum growth inhibitory concentration, Pseudomonas aeruginosa IAM-1007
[2] = tested on: Staphylococcus aureus 209P JC-1; test: Minimum growth inhibitory concentration, Staphylococcus aureus 209P JC-1
[3] = tested on: Bacillus subtilis ATCC6633; test: Minimum growth inhibitory concentration, Bacillus subtilis ATCC6633
[4] = tested on: Serratia marcescens No. 1; test: Minimum growth inhibitory concentration, Serratia marcescens No. 1
[5] = tested on: Proteus vulgaris GN-76; test: Minimum growth inhibitory concentration, Proteus vulgaris GN-76
[6] = tested on: Pseudomonase cepacia M-0527; test: Minimum growth inhibitory concentration, Pseudomonase cepacia M-0527
[7] = tested on: Pseudomonas aeruginosa E-2; test: Minimum growth inhibitory concentration, Pseudomonas aeruginosa E-2
[8] = tested on: Escherichia coli No. 29; test: Minimum growth inhibitory concentration, Escherichia coli No. 29
[9] = tested on: Klebsiella pneumoniae GN-69; test: Minimum growth inhibitory concentration, Klebsiella pneumoniae GN-69
[10] = tested on: Pseudomonas aeruginosa M-0148; test: Minimum growth inhibitory concentration, Pseudomonas aeruginosa M-0148
[11] = tested on: Proteus rettgeri GN-624; test: Minimum growth inhibitory concentration, Proteus rettgeri GN-624
[12] = tested on: Citrobacter freundii GN-346; test: Minimum growth inhibitory concentration, Citrobacter freundii GN-346
[13] = tested on: Staphylococcus aureus Smith (1); test: Minimum growth inhibitory concentration, Staphylococcus aureus Smith (1)
[14] = tested on: Enterobacter cloacae GN-471; test: Minimum growth inhibitory concentration, Enterobacter cloacae GN-471
[15] = tested on: Escherichia coli No. 255; test: Minimum growth inhibitory concentration, Escherichia coli No. 255
[16] = Pseudomonas aeruginosa IAM-1007
[17] = Staphylococcus aureus 209P JC-1
[18] = Staphylococcus aureus Smith (1)

SMILES | Minimum Growth Inhibitory Concentration [1, 16] | Minimum Growth Inhibitory Concentration [2, 17] | Minimum Growth Inhibitory Concentration ([3]; Bacillus subtilis ATCC6633) | Minimum Growth Inhibitory Concentration ([4]; Serratia marcescens No. 1) | Minimum Growth Inhibitory Concentration ([5]; Proteus vulgaris GN-76) | Minimum Growth Inhibitory Concentration [6] | Minimum Growth Inhibitory Concentration ([7]; Pseudomonas aeruginosa E-2) | Minimum Growth Inhibitory Concentration [8] | Minimum Growth Inhibitory Concentration ([9]; Klebsiella pneumoniae GN-69) | Minimum Growth Inhibitory Concentration ([10]; Pseudomonas aeruginosa M-0148) | Minimum Growth Inhibitory Concentration ([11]; Proteus rettgeri GN-624) | Minimum Growth Inhibitory Concentration ([12]; Citrobacter freundii GN-346) | Minimum Growth Inhibitory Concentration [13, 18] | Minimum Growth Inhibitory Concentration ([14]; Enterobacter cloacae GN-471) | Minimum Growth Inhibitory Concentration [15] | also measured
Nc1nc(/C(=N/OCc2cc(=O)c(O)c[nH]2)C(=O)N[C@@H]2C(=O)N3C(C(=O)[O-])=C(C[n+]4ccccc4)CS[C@H]23)cs1 [A, reference compound] | 3.13 | 3.13 | 1.56 | 0.20 | 0.20 | 0.39 | 3.13 | 0.20 | 0.20 | 25 | 12.5 | 25 | 3.13 | 3.13 | 1.56 | 
CC(C)(O/N=C(\C(=O)N[C@@H]1C(=O)N2C(C(=O)[O-])=C(C[n+]3ccccc3)CS[C@H]12)c1csc(N)n1)C(=O)O [B, Ceftazidime, reference compound] |  |  |  |  |  | 0.78 |  | 0.20 |  |  |  |  |  |  |  | Minimum Growth Inhibitory Concentration [1]: 1.56; Minimum Growth Inhibitory Concentration [2]: 3.13; Minimum Growth Inhibitory Concentration [3]: 6.25; Minimum Growth Inhibitory Concentration [4]: < 0.025; Minimum Growth Inhibitory Concentration [5]: 0.05; Minimum Growth Inhibitory Concentration [7]: 1.56; Minimum Growth Inhibitory Concentration [9]: 0.10; Minimum Growth Inhibitory Concentration [10]: 3.13; Minimum Growth Inhibitory Concentration [11]: 0.39; Minimum Growth Inhibitory Concentration [12]: 50; Minimum Growth Inhibitory Concentration [13]: 3.13; Minimum Growth Inhibitory Concentration [14]: 3.13
C[n+]1ccc(SCC2=C(C(=O)[O-])N3C(=O)[C@@H](NC(=O)/C(=N\OCc4cc(=O)c(O)cn4O)c4csc(N)n4)[C@H]3SC2)c2c1CCC2 [Example 4] | 0.10 | 3.13 | 12.5 | 0.10 | < 0.025 | < 0.025 | 0.10 | < 0.025 | 0.10 | 0.10 | 0.20 | 1.56 | 6.25 | 0.78 | 0.20 | 
Nc1nc(/C(=N/OCc2cc(=O)c(O)cn2O)C(=O)N[C@@H]2C(=O)N3C(C(=O)[O-])=C(CSc4cc[n+](CCO)cc4)CS[C@H]23)cs1 [Example 3, (6R,7R)-7-[(Z)-2-(2 Aminothiazole-4-yl)-2-(1,5-dihydroxy-4-pyridone-2-yl)methoxyiminoacetamido]-3-[1-(2-hydroxyethyl)pyridinium-4-yl]thiomethyl-ceph-3-em-4-carboxylate] | 0.10 | 3.13 | 12.5 | 0.10 | 0.05 | < 0.025 | 0.05 | 0.05 | 0.05 | 0.20 | 0.10 | 6.25 | 6.25 | 1.56 | 0.20 | 
Cn1c(SCC2=C(C(=O)O)N3C(=O)[C@@H](NC(=O)/C(=N\OCc4cc(=O)c(O)cn4O)c4csc(N)n4)[C@H]3SC2)nnc(O)c1=O [Example 9, (6R,7R)-7-[(Z)-2-(2-Aminothiazole-4-yl)-2-(1,5-dihydroxy-4-pyridone-2-yl)methoxyiminoacetamido]-3-(4,5-dihydro-4-methyl 5-oxo-6-hydroxy-1,2,4-triazine-3-yl)thiomethyl-ceph-3-em-4-carboxylic acid] | 0.39 | 6.25 | 12.5 | 0.05 | < 0.025 | < 0.025 | 0.05 | < 0.025 | < 0.025 | 0.39 | 0.20 | 3.13 | 12.5 | 3.13 | 0.20 | 
Nc1nc(/C(=N/OCc2cc(=O)c(O)cn2O)C(=O)N[C@@H]2C(=O)N3C(C(=O)[O-])=C(C[n+]4ccccc4)CS[C@H]23)cs1 [Example 14, (6R,7R)-7-[(Z)-2-(2-Aminothiazole-4-yl)-2-(1,5-dihydroxy-4-pyridone-2-yl)methoxyiminoacetamido]-3-pyridiniummethyl-ceph-3-em-4-carboxylate] | 0.39 | 6.25 | 12.5 | 0.10 | 0.20 | < 0.025 | 0.10 | 0.10 | 0.10 | 0.78 | 3.13 | 6.25 | 6.25 | 3.13 | 0.78 | 
C[n+]1ccc(SCC2=C(C(=O)[O-])N3C(=O)[C@@H](NC(=O)/C(=N\OCc4cc(=O)c(O)cn4O)c4csc(N)n4)[C@H]3SC2)cc1 [Example 1, (6R,7R)-7-[(Z)-2-(2-Aminothiazole-4-yl)-2-(1,5-dihydroxy-4-pyridone-2-yl)methoxyiminoacetamido]-3-(1-methylpyridinium-4-yl)thiomethyl-ceph-3em-4-carboxylate] | 0.10 | 3.13 | 12.5 | 0.05 | 0.05 | < 0.025 | 0.05 | 0.05 | < 0.025 | 0.20 | 0.10 | 12.5 | 3.13 | 1.56 | 0.10 | 
